Measured values taken from patent US20230100429A1, “LIVE-PATHOGEN-MIMETIC NANOPARTICLES BASED ON PATHOGEN CELL WALL SKELETON, AND PRODUCTION METHOD THEREOF” (priority 2020, published 2023).

Assay: Toxicity evaluation, plasma AST and ALT after subcutaneous injection
Type: in vivo, C57BL/6 mouse
Conditions: 25 μg resiquimod, over time, FIG. 6
Procedure: To evaluate the toxicity of a live pathogen-mimetic nano-molecule, a live pathogen-mimetic nano-molecule, a CWS-nanodispersion, resiquimod (R848; free drug), or a mixture of a CWS-nanodispersion and resiquimod (R848; free drug), which was added to a 50 μL of phosphate buffered saline (PBS) to have a resiquimod concentration of 25 μg, was subcutaneously injected into the right flank of a C57BL/6 mouse. Then, blood was extracted from the mouse at fixed time intervals and centrifuged at 12,000 rpm to isolate plasma. Then, the concentrations of aspartate transaminase (AST) and alanine transaminase (ALT) contained in the isolated plasma were measured using ELISA.

CCOCc1nc2c(N)nc3ccccc3c2n1CC(C)(C)O [resiquimod]
plasma ALT concentration (hepatotoxicity indicator): initially increased
plasma AST concentration (hepatotoxicity indicator): initially increased
